Assay results from US10155802B2, “Locally-active anticoagulants and anti-inflammatory agents” (priority 2011, dated 2018).
Read-outs that look alike come from different tables or passages of the source.

Assays:
[1] = molecular target: T1, Human α-thrombin (Homo sapiens, UniProt P00734); experiment: Inhibition of thrombin-catalyzed hydrolysis of chromogenic substrate S-2366 (inhibition constant Ki); type: biochemical; settings: for Kd: KD (dissociation constant of open species = Ki x popen); for Ki: pH 7.6
T1 construct: Human α-thrombin was purchased from Haemotologic Technologies, Inc., VT, USA; purchased Haemotologic Technologies, Inc., VT, USA

[2] = Thermal unfolding of hairpin linkers (Tm, unfolded population punfold); type: physicochemical; settings: calculated, two-state unfolding
Text: Assuming a two-state unfolding of the trpzip linkers, the unfolded populations punfold=popen (Table 3) can be calculated using reported thermal characteristics of isolated trpzip peptides (Cochran 2001). It is important (Cochran 2001) to take into consideration bulk temperature dependences of the enthalpy and entropy differences between folded and unfolded states of trpzip peptides (Privalov 1997). Disregard for the appreciable ΔCp difference between folded and unfolded species would lead to particularly large underestimation of punfold for BTI5, since the bulk temperatures used for Ki determination were far from the trpzip4 folding transition point.
The punfold value for the BTI2 inhibitor was calculated using ΔH=11.6 kcal/mol and ΔS=39 cal/mol/K obtained in earlier studies of the gb1 peptide (Munoz 1997), which gives punfold values of 0.44 and 0.69 at 21° C. and 37° C., respectively. […] (Table 3). More importantly, all the KD values are close to those of BTI1 which contains a flexible (or random-coil) (GS)8 linker, which confirms the predicted small variation in KD values for bivalent ligands connected by flexible linkers of equal contour length and similar composition (Zhou 2001a; Zhou, 2001b).

CC[C@H](C)[C@H](NC(=O)[C@H](CCC(=O)O)NC(=O)[C@H](CCC(=O)O)NC(=O)[C@H](Cc1ccccc1)NC(=O)[C@H](CC(=O)O)NC(=O)CNC(=O)[C@H](CO)NC(=O)CNC(=O)[C@H](CO)NC(=O)CNC(=O)[C@H](CO)NC(=O)CNC(=O)[C@H](CO)NC(=O)CNC(=O)[C@H](CO)NC(=O)CNC(=O)[C@H](CO)NC(=O)CNC(=O)[C@H](CO)NC(=O)CNC(=O)[C@H](CO)NC(=O)CNC(=O)[C@H]1CCCCN1C(=O)[C@H](CCCNC(=N)N)NS(=O)(=O)c1ccc(C(C)(C)C)cc1)C(=O)N1CCC[C@H]1C(=O)N[C@@H](CCC(=O)O)C(=O)N[C@@H](CCC(=O)O)C(=O)N[C@@H](Cc1ccc(O)cc1)C(=O)N[C@@H](CC(C)C)C(=O)N[C@@H](CCC(N)=O)C(=O)O [BTI1]
Kd ([1]; T = 21° C.): 0.53 ± 0.03 nM
Kd ([1]; T = 37° C.): 1.3 ± 0.3 nM
Ki ([1]; Ki, T = 21° C.): 0.53 ± 0.03 nM
Ki ([1]; T = 37° C., read-out: Ki): 1.3 ± 0.3 nM
punfold (population of unfolded/open linker) ([2]; T = 21° C.): 1
punfold (population of unfolded/open linker) ([2]; T = 37° C.): 1
